# From US11319309B2, “Cyclohexyl acid isoxazole azines as LPA antagonists” (BRISTOL-MYERS SQUIBB COMPANY, priority 2017, dated 2022)
# Biological target: T1, human LPA1 (Homo sapiens, UniProt Q92633)
# T1 construct: expressed in transfected cells; host or cells: Chinese hamster ovary (CHO) cells
# Experiment: LPA1 functional antagonist assay (calcium flux)
# Format: cell-based
# Settings: CHO cells overexpressing human LPA1; inhibition of calcium flux induced by 10 nM LPA; read-out: hLPA1 IC50
# Experimental: The effectiveness of compounds of the present invention as LPA1 inhibitors can be determined in an LPA1 functional antagonist assay as follows:
# Chinese hamster ovary cells overexpressing human LPA1 were plated overnight (15,000 cells/well) in poly-D-lysine coated 384-well microplates (Greiner bio-one, Cat #781946) in DMEM/F12 medium (Gibco, Cat #11039). Following overnight culture, cells were loaded with calcium indicator dye (AAT Bioquest Inc, Cat #34601) for 30 minutes at 37° C. The cells were then equilibrated to room temperature for 30 minutes before the assay. Test compounds solubilized in DMSO were transferred to 384 well non-binding surface plates (Corning, Cat #3575) using the Labcyte Echo acoustic dispense and diluted with assay buffer [1X HBSS with calcium/magnesium (Gibco Cat #14025-092), 20 mM HEPES (Gibco Cat #15630-080) and 0.1% fatty acid free BSA (Sigma Cat # A9205)] to a final concentration of 0.5% DMSO. Diluted compounds were added to the cells by FDSS6000 (Hamamatsu) at final concentrations ranging from 0.08 nM to 5 μM. and were then incubated for 20 min at room temperature at which time LPA (Avanti Polar Lipids Cat #857130C) was added at final concentrations of 10 nM to stimulate the cells. The compound IC50 value was defined as the concentration of test compound which inhibited 50% of the calcium flux induced by LPA alone. IC50 values were determined by fitting data to a 4-parameter logistic equation (GraphPad Prism, San Diego Calif.).
# T1 sequence (Q92633 whole entry): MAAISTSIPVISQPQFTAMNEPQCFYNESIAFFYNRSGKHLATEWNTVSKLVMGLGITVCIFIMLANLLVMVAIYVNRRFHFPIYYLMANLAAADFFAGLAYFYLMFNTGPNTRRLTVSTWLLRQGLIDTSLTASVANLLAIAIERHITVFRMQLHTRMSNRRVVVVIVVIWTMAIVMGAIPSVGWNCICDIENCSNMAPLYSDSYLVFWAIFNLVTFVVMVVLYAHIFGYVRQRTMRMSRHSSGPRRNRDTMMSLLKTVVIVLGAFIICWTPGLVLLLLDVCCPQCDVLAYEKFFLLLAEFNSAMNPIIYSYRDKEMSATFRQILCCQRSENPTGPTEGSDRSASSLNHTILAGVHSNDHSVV
row,Compound,IC50
1,CCOc1ccnc(NCc2c(C)noc2-c2ccc(O[C@H]3CCC[C@H](C(=O)O)C3)cn2)n1 [Example 23],14 nM
2,Cc1cc(-c2ccccc2)nc(NCc2c(C)noc2-c2ccc(O[C@H]3CCC[C@H](C(=O)O)C3)cn2)n1 [Example 8],16 nM
3,Cc1noc(-c2ccc(O[C@H]3CCC[C@H](C(=O)O)C3)cn2)c1CNc1nccc(Oc2ccccc2)n1 [Example 7],6 nM
4,Cc1cc(Oc2ccccc2)nc(NCc2c(C)noc2-c2ccc(O[C@H]3CCC[C@H](C(=O)O)C3)cn2)n1 [Example 9],20 nM
5,"Cc1nc(-c2onc(C)c2CNc2ncnc(C(C)C)n2)ccc1O[C@H]1CCC[C@H](C(=O)O)C1 [Example 2, (1 S,3 S)-3-((6-(4-(((4-isopropyl-1,3,5-triazin-2-yl)amino)methyl)-3-methylisoxazol-5-yl)-2-methylpyridin-3-yl)oxy)cyclohexane-1-carboxylic Acid]",43 nM
6,Cc1noc(-c2ccc(O[C@H]3CCC[C@H](C(=O)O)C3)cn2)c1CNc1nccc(-c2ccccc2)n1 [Example 3],18 nM
7,Cc1noc(-c2ccc(O[C@H]3CCC[C@H](C(=O)O)C3)cn2)c1CNc1ncnc(C2CCCC2)n1 [Example 28],24 nM
8,Cc1cc(N2CCCCC2)nc(NCc2c(C)noc2-c2ccc(O[C@H]3CCC[C@H](C(=O)O)C3)cn2)n1 [Example 12],1100 nM
9,Cc1noc(-c2ccc(O[C@H]3CCC[C@H](C(=O)O)C3)cn2)c1CNc1nccc(C2CC2)n1 [Example 10],18 nM
10,Cc1noc(-c2ccc(O[C@H]3CCC[C@@H](C(=O)O)C3)cn2)c1CNc1nccc(-c2ccccc2)n1 [Example 4],39 nM
11,"CCOc1ccnc(NCc2c(C)noc2-c2ccc(O[C@H]3CCC[C@H](C(=O)O)C3)c(C)n2)n1 [Example 17, (1S,3S)-3-((6-(4-(((4-Ethoxypyrimidin-2-yl)amino)methyl)-3-methylisoxazol-5-yl)-2-methylpyridin-3-yl)oxy)cyclohexane-1-carboxylic Acid]",26 nM
12,"Cc1noc(-c2ccc(O[C@@H]3CCC[C@@H](C(=O)O)C3)cc2)c1COc1nccc(-c2ccccc2)n1 (racemic) [Example 30, (±)-Trans-3-(4-(3-methyl-4-(((4-phenylpyrimidin-2-yl)oxy)methyl)isoxazol-5-yl)phenoxy)cyclohexanecarboxylic Acid]",47 nM
13,Cc1cnc(NCc2c(C)noc2-c2ccc(O[C@H]3CCC[C@H](C(=O)O)C3)cn2)nc1-c1ccccc1 [Example 15],4.9 nM
14,Cc1nc(-c2onc(C)c2CNc2ncnc(C3CC3)n2)ccc1O[C@H]1CCC[C@H](C(=O)O)C1 [Example 19],76 nM
15,Cc1noc(-c2ccc(O[C@H]3CCC[C@H](C(=O)O)C3)cn2)c1CNc1ncnc(C(C)C)n1 [Example 26],38 nM
16,Cc1noc(-c2ccc(O[C@H]3CCC[C@H](C(=O)O)C3)cn2)c1CNc1ncc(F)c(NC(C)C)n1 [Example 24],32 nM

# Continued, values first:
row,IC50,Compound
1,209 nM,"Cc1noc(-c2ccc(O[C@@H]3CCC[C@H](C(=O)O)C3)cc2)c1COc1nccc(-c2ccccc2)n1 (racemic) [Example 29, (±)-Cis-3-(4-(3-Methyl-4-(((4-phenylpyrimidin-2-yl)oxy)methyl)isoxazol-5-yl)phenoxy)cyclo-hexanecarboxylic Acid]"
2,88 nM,Cc1nc(-c2onc(C)c2CNc2ncc(F)c(NC(C)C)n2)ccc1O[C@H]1CCC[C@H](C(=O)O)C1 [Example 18]
3,64 nM,Cc1nc(-c2onc(C)c2CNc2ncnc(C3CCC3)n2)ccc1O[C@H]1CCC[C@H](C(=O)O)C1 [Example 20]
4,64 nM,Cc1nc(-c2onc(C)c2CNc2nccc(-c3ccccn3)n2)ccc1O[C@H]1CCC[C@H](C(=O)O)C1 [Example 14]
5,60 nM,Cc1nc(-c2onc(C)c2CNc2ncnc(C3CCCC3)n2)ccc1O[C@H]1CCC[C@H](C(=O)O)C1 [Example 21]
6,47 nM,Cc1noc(-c2ccc(O[C@@H]3CCC[C@@H](C(=O)O)C3)cc2)c1CNc1nccc(-c2ccccc2)n1 [Example 22]
7,33 nM,Cc1noc(-c2ccc(O[C@H]3CCC[C@H](C(=O)O)C3)cn2)c1CNc1ncnc(C2CCC2)n1 [Example 27]
8,32 nM,Cc1noc(-c2ccc(O[C@H]3CCC[C@H](C(=O)O)C3)cn2)c1CNc1nccc(-c2ccccn2)n1 [Example 13]
9,29 nM,Cc1noc(-c2ccc(O[C@H]3CCC[C@H](C(=O)O)C3)cn2)c1CNc1ncnc(C2CC2)n1 [Example 25]
10,21 nM,Cc1noc(-c2ccc(O[C@H]3CCC[C@H](C(=O)O)C3)cn2)c1CNc1cc(-c2ccccc2)ccn1 [Example 5]
11,17 nM,Cc1cc(OC(C)C)nc(NCc2c(C)noc2-c2ccc(O[C@H]3CCC[C@H](C(=O)O)C3)cn2)n1 [Example 11]
12,14 nM,Cc1noc(-c2ccc(O[C@H]3CCC[C@@H](C(=O)O)C3)cn2)c1CNc1nccc(-c2ccccc2)n1 [Example 16]
13,14 nM,"Cc1noc(-c2ccc(O[C@H]3CCC[C@H](C(=O)O)C3)cn2)c1CNc1nccc(-c2ccccc2)n1 [Example 1, (1S,3S)-3-((6-(3-methyl-4-(((4-phenylpyrimidin-2-yl)amino)methyl)isoxazol-5-yl)pyridin-3-yl)oxy) cyclohexane-1-carboxylic Acid]"
14,7.8 nM,Cc1noc(-c2ccc(O[C@H]3CCC[C@](F)(C(=O)O)C3)cn2)c1CNc1nccc(-c2ccccc2)n1 [Example 6]

# Test system: IPF patients
# Experiment: not given
# Settings: 26-week clinical trial, IPF patients (Palmer et al., Chest 2018); cited from earlier work
row,Compound,rate of FVC (forced vital capacity) decline
1,Cc1noc(-c2ccc(-c3ccc(C4(C(=O)O)CC4)cc3)cc2)c1NC(=O)O[C@H](C)c1ccccc1 [BMS-986020],significantly reduce

# Test system: human foetal lung fibroblasts
# Experiment: not given
# Settings: induced by BAL obtained from IPF patients (Tager et al. 2008); cited from earlier work
row,Compound,chemotaxis of human foetal lung fibroblasts
1,Cc1noc(-c2ccc(CSCCC(=O)O)cc2)c1NC(=O)OC(C)c1ccccc1Cl (stereo not shown) [Ki16425],blocked

# Test system: UUO mice
# Experiment: not given
# Settings: UUO mice treated with antagonist, compared with LPA1 (-/-) mice; cited from earlier work
row,Compound,development of renal fibrosis
1,Cc1noc(-c2ccc(CSCCC(=O)O)cc2)c1NC(=O)OC(C)c1ccccc1Cl (stereo not shown) [Ki16425],closely resembled the profile of LPA1 (−/−) mice

# Test system: mouse epithelial renal cell line, MCT
# Experiment: not given
# Settings: MCT cells, co-treatment with LPA; cited from earlier work
row,Compound,induction of CTGF expression by LPA
1,Cc1noc(-c2ccc(CSCCC(=O)O)cc2)c1NC(=O)OC(C)c1ccccc1Cl (stereo not shown) [Ki16425],almost completely suppressed

# Test system: pancreatic cancer cell lines
# Experiment: not given
# Settings: highly peritoneal metastatic pancreatic cancer cell line (Yamada et al. 2004); cited from earlier work
row,Compound,LPA-induced and ascites-induced invasion activity
1,Cc1noc(-c2ccc(CSCCC(=O)O)cc2)c1NC(=O)OC(C)c1ccccc1Cl (stereo not shown) [Ki16425],blocked

# Same assay, conditions: pancreatic cancer cell lines (Yamada et al. 2004); cited from earlier work
row,Compound,in vitro migration in response to LPA and peritoneal fluid (ascites)
1,Cc1noc(-c2ccc(CSCCC(=O)O)cc2)c1NC(=O)OC(C)c1ccccc1Cl (stereo not shown) [Ki16425],effectively blocked

# Test system: nerve-injured mice
# Experiment: not given
# Settings: pretreatment, nerve-injured mice (Inoue et al. 2004); cited from earlier work
row,Compound,allodynia and hyperalgesia
1,C[C@@H](N)[C@H]1CC[C@H](C(=O)Nc2ccncc2)CC1 [Example Y-27632],completely abolished
